In US11708360B2, “N-substituted-dioxocyclobutenylamino-3-hydroxy-picolinamides useful as CCR6 inhibitors” (Pfizer Inc., priority 2018, dated 2023):
Where two headings read alike, the source gives them in different places.

Tests used:
[1] = target: T1, CXCR2 (Homo sapiens, UniProt P25025); set-up: host or cells: Path-Hunter HEK293 cells; details: Table 16; data disclosed in WO 2013/061005; β-arrestin recruitment, CXCL8, Path-Hunter HEK293 cells; cited from earlier work
T1 sequence (P25025 1-360): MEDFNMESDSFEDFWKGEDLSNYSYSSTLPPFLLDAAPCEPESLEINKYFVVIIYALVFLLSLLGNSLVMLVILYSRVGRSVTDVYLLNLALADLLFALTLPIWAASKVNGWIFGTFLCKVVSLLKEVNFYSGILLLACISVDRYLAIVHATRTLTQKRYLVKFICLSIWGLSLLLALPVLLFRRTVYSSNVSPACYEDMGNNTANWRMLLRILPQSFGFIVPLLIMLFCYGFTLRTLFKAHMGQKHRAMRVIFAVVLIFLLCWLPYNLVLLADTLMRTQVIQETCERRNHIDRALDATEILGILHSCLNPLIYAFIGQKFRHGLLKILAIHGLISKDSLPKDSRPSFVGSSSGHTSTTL

[2] = target: T1, CXCR2; assay: Human Neutrophil Chemotaxis Assay; format: cell-based; set-up: Human neutrophils were purified from freshly drawn human whole blood; endogenous in cells; host or cells: primary human neutrophils from fresh whole blood; details: Table 17; WO 2013/061005 comparator compounds; read-out: IC50 (nM) CXCR2 Neutrophil, GROα Chemotaxis

Structure (SMILES)	IC50 [1] [nM]	IC50 [2] [nM]
Cc1ccc([C@H](Nc2c(Nc3ccc(Cl)c(S(=O)(=O)N(C)C)c3O)c(=O)c2=O)C2(C)COC2)o1 [Example 22 (WO 2013/061005), reference compound]	31	35.2
Cc1ccc([C@H](Nc2c(Nc3ccc(Cl)c(C(=O)N4CCN(C)CC4)c3O)c(=O)c2=O)C2(C)COC2)o1 [Example 53, reference compound]	30	1140
